Several values for one entry are separate records, joined by “and”; a condition that tells them apart may be missing. Identical values can stand only once. Like-named read-outs stand apart in the source and are kept apart here.
How the values were obtained:
[1] = test system: M. perniciosa; parameters: method as in PMID 22443281, PMID 30350447; conditions: cited from earlier work
[2] = test system: membrane-bound TAO; parameters: method as in PMID 23180806; conditions: cited from earlier work
[3] = target: purified rMpAOX (Moniliophthora perniciosa, UniProt A8QJP8); assay: Purified (detergent-solubilised) rMpAOX, Q1H2 oxidation; format: biochemical
Experimental: The E. coli membrane fraction was resuspended with 50 mM Tris-HCl pH 7.5, 20% glycerol, 200 mM MgSO4 and 1% Fos-Choline-12 (FC-12) instead of MOPS buffer. The sample was left under gentle rocking for 1 h at 4 °C, after which it was centrifuged at 200,000 rcf for 30 min. […] T. Elthon, Nebraska, USA. Protein content was estimated through the Bradford method[63] and bovine serum albumin as standard.
(§1) Respiration rates were recorded before and after the addition of putative AOX activators, such as 5′-ADP, 5′-AMP, 5′-GDP, 5′-GMP, glyoxylate, oxaloacetate, pyruvate or succinate (1 mM each unless stated otherwise). […] Data were acquired with the Multiskan FC Microplate Photometer (ThermoFisher). […] Absorbance readings were taken periodically and a blank reactions (substrate without enzyme) were included in every assay and were used to determine and subtract the autoxidation rate (background). Proteoliposomes were assayed as described for the E. coli membrane fraction except that no KCN was included and 0.5 µL of the prep (~50 ng rMpAOX) were added into the reaction. When tested, inhibitors were preincubated with the enzyme in reaction buffer for 2–5 min before starting the reaction by the addition of substrate. The path length (i.e., the height of the reaction medium inside the well) was calculated based on the reaction volume and the well cross-section area informed by the supplier. GraphPad Prism 7.0 (GraphPad Software Inc.) was used for function fitting.

[4] = target: T1, membrane-bound rMpAOX (Moniliophthora perniciosa, UniProt A8QJP8); assay: Dose-response assay of inhibitors with membrane-bound, GMP-activated rMpAOX (NADH oxidation); format: biochemical
Experimental: (§2) E. coli membrane preparation was performed as described with minor modifications. […] The cells were disrupted using two passes at […] through a pre-cooled Constant cell disruption system (Constant Systems Ltd). The lysate was centrifuged for 15 min at 16,000 rcf, and the pelleted unbroken cells and large cell debris were discarded. The supernatant was centrifuged for 90 min at 200,000 rcf to collect the fragmented membranes.
as §1

[5] = test system: TAO incorporated into PLs; parameters: method as in PMID 29133414; conditions: cited from earlier work
[6] = test system: solubilised TAO; parameters: method as in PMID 29107420; conditions: cited from earlier work
[7] = target: rMpAOX incorporated into proteoliposomes (Moniliophthora perniciosa, UniProt A8QJP8); assay: rMpAOX incorporated into proteoliposomes with Q10 and NDH-2 (NADH oxidation); format: biochemical
Experimental: Proteoliposomes (PL) were prepared as previously described[44],[45], except that NDH-2 was used instead of complex I and 0.5% DDM was used instead of OG. […] For kinetic studies, PLs were prepared with 50 µg rMpAOX and no NDH-2—in this case, pure NDH-2 was added directly into the enzymatic reaction mixture at a saturating concentration. Briefly, lipids and Q10 stocks in chloroform were mixed in a glass vial and the chloroform dried under a nitrogen stream. The lipids were hydrated and extruded through a 100 nm NanoSizer MINI Liposome Extruder (T&T Scientific) followed by the addition of protein. After treatment with the Bio-Beads SM-2 Resin (Bio-Rad), proteolipososmes were harvested by ultracentrifugation and resuspended in 150 µL of buffer. Enzymatic assays were performed on the same day.
as §1

[8] = target: T1, membrane-bound rMpAOX; assay: Membrane-bound rMpAOX activity with putative activators (O2 uptake, oxygraph; dose-response); format: biochemical;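 for Fractional velocity, %: 100% is the maximal rate reached in the activator titration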
Experimental: as §2, §1

[9] = test system: membrane-bound TAO; assay: Inhibition of membrane-bound TAO (literature); format: biochemical, Trypanosoma brucei; conditions: from literature IC50 values
[10] = test system: WBD (witches' broom disease of cocoa, M. perniciosa); parameters: method as in PMID 30350447; conditions: 200 µM, in the absence of a main respiration inhibitor; cited from earlier work
[11] = log[I], M -5.60206 (Fig2b), 2.5 µM
[12] = log[I], M -6.60206 (Fig2b), 0.25 µM
[13] = log[I], M -8.60206 (Fig2b), 0.0025 µM
[14] = log[I], M -9.60206 (Fig2b), 0.00025 µM
[15] = log[I], M -10.6021 (Fig2b), 25 pM

Sequence of purified rMpAOX (A8QJP8 entry or part of it): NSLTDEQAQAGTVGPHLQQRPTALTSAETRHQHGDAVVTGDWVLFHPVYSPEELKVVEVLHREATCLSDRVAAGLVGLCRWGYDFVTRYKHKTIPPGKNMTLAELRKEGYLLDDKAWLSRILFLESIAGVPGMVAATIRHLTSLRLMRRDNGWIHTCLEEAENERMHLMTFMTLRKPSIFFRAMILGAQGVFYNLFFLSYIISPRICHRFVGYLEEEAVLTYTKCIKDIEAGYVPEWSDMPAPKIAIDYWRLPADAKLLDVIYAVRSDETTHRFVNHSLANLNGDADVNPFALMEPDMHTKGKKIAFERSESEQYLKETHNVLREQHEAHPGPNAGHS
T1 sequence (A8QJP8 entry or part of it): as above
Sequence of rMpAOX incorporated into proteoliposomes (A8QJP8 entry or part of it): as above

For `CCCOC(=O)c1cc(O)c(O)c(O)c1` [n-propyl gallate], the “Concentrations that inhibit M. perniciosa growth” value [1] is given as “millimolar concentrations”.
In the case of `CC(C)=CCC/C(C)=C/Cc1c(O)c(Cl)c(C)c(C=O)c1O` [CB, colletochlorin B], the IC50 [2] is given as 0.2 nM, the Ki ([3]; Morrison equation for tight-binders, read-out: KIapp) is given as 13.9 nM and the activity at 2.5 pM ([3]; [I], M 2.5e-12, read-out: Dose-response assay with CB, (Fig3d)) is given as 99.5%. It also gave an activity at 10 pM ([3]; [I], M 1e-11, read-out: Dose-response assay with CB, Fig3d) of 98%, an activity at 25 pM ([3]; [I], M 2.5e-11, read-out: Dose-response assay with CB, (Fig3d)) of 99% and an activity at 0.0001 µM ([3]; [I], M 1e-10, read-out: Dose-response assay with CB, Fig3d) of 100%. The activity at 0.00025 µM ([3]; [I], M 2.5e-10, read-out: Dose-response assay with CB, (Fig3d)) was 99.7%, the activity at 0.001 µM ([3]; [I], M 1e-9, read-out: Dose-response assay with CB, Fig3d) was 96.8% and the activity at 0.0025 µM ([3]; [I], M 2.5e-9, read-out: Dose-response assay with CB, (Fig3d)) was 94.6%. The activity at 0.01 µM ([3]; [I], M 1e-8, read-out: Dose-response assay with CB, Fig3d) was 79.3%, the activity at 0.025 µM ([3]; [I], M 2.5e-8, read-out: Dose-response assay with CB, (Fig3d)) was 69.2% and the activity at 0.1 µM ([3]; [I], M 1e-7, read-out: Dose-response assay with CB, Fig3d) was 36.9%. The activity at 0.25 µM ([3]; [I], M 2.5e-7, read-out: Dose-response assay with CB, (Fig3d)) was 22.7%, the activity at 1 µM ([3]; [I], M 1e-6, read-out: Dose-response assay with CB, Fig3d) was 8.98% and the activity at 2.5 µM ([3]; [I], M 2.5e-6, read-out: Dose-response assay with CB, (Fig3d)) was 10.4%. It also gave an activity at 10 µM ([3]; [I], M 1e-5, read-out: Dose-response assay with CB, Fig3d) of 2.99%, an activity at 25 µM ([3]; [I], M 2.5e-5, read-out: Dose-response assay with CB, (Fig3d)) of 0% and an activity at 100 µM ([3]; [I], M 0.0001, read-out: Dose-response assay with CB, Fig3d) of 3.34%. For the same compound, the “CB-to-rMpAOX ratio at the IC50 concentration” value ([3]; enzyme 49.1 nM) was 1.2, the IC50 ([3]; purified rMpAOX, enzyme 49.1 nM) was 59.3 nM and the “Fractional velocity, %” value ([4]; log[I], M -4.60206 (Fig2b), 25 µM) was 2.536% and 2.662% and 8.437%. The “Fractional velocity, %” value [4, 11] was 2.977% and 3.203% and 8.094%, the “Fractional velocity, %” value [4, 12] was 4.262% and 7.7642% and 10.3237% and the “Fractional velocity, %” value [4, 13] was 76.0268% and 98.1726% and 76.3221%. The “Fractional velocity, %” value [4, 14] was 96.6921% and 90.9449%, the activity at 0.00025 µM ([4]; log[I], M -9.60206 (Fig2b), read-out: Fractional velocity, %) was 96.2% and the “Fractional velocity, %” value [4, 15] was 95.8052% and 91.68%. For the same compound, the activity at 25 pM ([4]; log[I], M -10.6021 (Fig2b), read-out: Fractional velocity, %) was 92%, the IC50 ([4]; membrane-bound, GMP-activated rMpAOX, read-out: IC50) was 14.8 nM and the “CB-to-enzyme ratio at the IC50 concentration” value [5] was 1.4. For the same compound, the “CB-to-enzyme ratio at the IC50 concentration” value [6] was 1.3, the “Fractional velocity, %” value ([7]; log[CB], M -4.60206 (Fig4b), 25 µM) was 2.151% and the activity at 25 µM ([7]; log[CB], M -4.60206 (Fig4b), read-out: Fractional velocity, %) was 2.86%. For the same compound, the “Fractional velocity, %” value ([7]; log[CB], M -5.60206 (Fig4b), 2.5 µM) was 4.07%, the activity at 2.5 µM ([7]; log[CB], M -5.60206 (Fig4b), read-out: Fractional velocity, %) was 3.2% and the “Fractional velocity, %” value ([7]; log[CB], M -6.60206 (Fig4b), 0.25 µM) was 11.8798%. The activity at 0.25 µM ([7]; log[CB], M -6.60206 (Fig4b), read-out: Fractional velocity, %) was 11.1%, the “Fractional velocity, %” value ([7]; log[CB], M -7.60206 (Fig4b), 0.025 µM) was 47.093% and the activity at 0.025 µM ([7]; log[CB], M -7.60206 (Fig4b), read-out: Fractional velocity, %) was 46.1%. The “Fractional velocity, %” value ([7]; log[CB], M -8.60206 (Fig4b), 0.0025 µM) was 86.8217%, the activity at 0.0025 µM ([7]; log[CB], M -8.60206 (Fig4b), read-out: Fractional velocity, %) was 74.5% and the “Fractional velocity, %” value ([7]; log[CB], M -9.60206 (Fig4b), 0.00025 µM) was 97.2868%. The activity at 0.00025 µM ([7]; log[CB], M -9.60206 (Fig4b), read-out: Fractional velocity, %) was 99.3%, the “Fractional velocity, %” value ([7]; log[CB], M -10.6021 (Fig4b), 25 pM) was 98.4496% and the activity at 25 pM ([7]; log[CB], M -10.6021 (Fig4b), read-out: Fractional velocity, %) was 98.7%. The activity at 2.5 pM ([7]; log[CB], M -11.6021 (Fig4b), read-out: Fractional velocity, %) was 100% and the IC50 ([7]; proteoliposomes with rMpAOX, Q10 and NDH-2) was 19.5 nM.
With `Nc1nc2c(ncn2[C@@H]2O[C@H](COP(=O)(O)O)[C@@H](O)[C@H]2O)c(=O)[nH]1` [GMP, 5′-GMP] the “Effect on rMpAOX kinetic parameters KM and VMax” value ([3]; GMP up to 0.5 mM, purified rMpAOX) was “did not alter”, the “Maximum membrane-bound rMpAOX oxygen uptake” value ([8]; 1 mM GMP) was 0.67 µmol O2 min^−1 mg total protein^−1 and the “Maximum membrane-bound rMpAOX oxygen uptake per mg AOX” value ([8]; 1 mM GMP) was 5 µmol O2 min^−1 mg AOX^−1. For the same compound, the “Increase of membrane-bound rMpAOX oxygen uptake” value ([8]; 1 mM activator) was 9.8 times, the “Fold-change in membrane-bound rMpAOX O2 uptake” value ([8]; 1 mM each, single independent measurements (Fig1a)) was 8.8788 and 10.5259 and 10.0722 and the “Fractional velocity, %” value ([8]; [activator] 0.025 mM (Fig1b)) was 56.6% and 57.7%. The “Fractional velocity, %” value ([8]; [activator] 0.075 mM (Fig1b)) was 100.5% and 91.4%, the “Fractional velocity, %” value ([8]; [activator] 0.175 mM (Fig1b)) was 125.1% and 121.5% and the “Fractional velocity, %” value ([8]; [activator] 0.375 mM (Fig1b)) was 153.9% and 143.6%. For the same compound, the “Fractional velocity, %” value ([8]; [activator] 0.625 mM (Fig1b)) was 166.3% and 158.4%, the “Fractional velocity, %” value ([8]; [activator] 1.125 mM (Fig1b)) was 182.1% and 175.1% and the “Fractional velocity, %” value ([8]; [activator] 2.125 mM (Fig1b)) was 186.8% and 187.9%. The “Fractional velocity, %” value ([8]; [activator] 4.125 mM (Fig1b)) was 193.5% and 196.9%, the “Fractional velocity, %” value ([8]; [activator] 6.625 mM (Fig1b)) was 206.9% and 200.9% and the EC50 ([8]; membrane-bound rMpAOX, 4-parameter sigmoid fit, read-out: EC50 of rMpAOX activation) was 166000 nM. For the same compound, the “Sensitivity of rMpAOX to GMP” value ([7]; PL system) was “not regained”.
For `CC(/C=C/[C@@]1(C)[C@H](C)CCC(=O)[C@@H]1C)=C\Cc1c(O)c(Cl)c(C)c(C=O)c1O` [AC, ascochlorin], the IC50 [2] is listed as 1.5 nM, the IC50 [4] is listed as 5250 nM and the “Fractional velocity, %” value [4, 11] is listed as 73.3239% and 61.6121%. For the same compound, the “Fractional velocity, %” value [4, 12] was 96.489% and 80.5494%, the “Fractional velocity, %” value ([4]; log[I], M -7.60206 (Fig2b), 0.025 µM) was 98.3896% and 89.3939% and the “Fractional velocity, %” value [4, 13] was 99.2565% and 89.0077%. For the same compound, the “Fractional velocity, %” value [4, 14] was 97.0686% and 90.2842%, the “Fractional velocity, %” value [4, 15] was 95.0559% and 89.2874% and the activity at 2.5 µM ([4]; read-out: Fractional velocity, %, log[I], M -5.60206 (Fig2b)) was 60.8%. It also gave an activity at 0.25 µM ([4]; read-out: Fractional velocity, %, log[I], M -6.60206 (Fig2b)) of 92.8%, an activity at 0.025 µM ([4]; read-out: Fractional velocity, %, log[I], M -7.60206 (Fig2b)) of 98.2% and an activity at 0.0025 µM ([4]; read-out: Fractional velocity, %, log[I], M -8.60206 (Fig2b)) of 97.9%. For the same compound, the activity at 0.00025 µM ([4]; read-out: Fractional velocity, %, log[I], M -9.60206 (Fig2b)) was 95.5%, the activity at 25 pM ([4]; read-out: Fractional velocity, %, log[I], M -10.6021 (Fig2b)) was 93.4% and the “Ratio of AC IC50 to CB IC50 (TAO)” value [9] was 7.5.
For `O=C(Nc1cccc(Br)c1)c1cccc(F)c1` [N-(3-bromophenyl)-3-fluorobenzamide], the “Effect in plants against WBD” value [10] is given as “protective effect”.
